Source: patent US8927280B2, “Compositions and methods for promoting the generation of definitive endoderm” (President and Fellows of Harvard College, priority 2009, dated 2015)
“Also recorded” adds a separate entry of the source.

Tests used:
[1] = tested on: human ES cells (HUES 4 and 8); assay: Sox17 endoderm induction in human ES cells; assay type: cell-based; conditions: for dose dependence of Sox17 expression: HUES 4 and 8; for percent of cells expressing Sox17: HUES cells, 4 days, IDE1 100 nM, IDE2 200 nM
Method: Human embryonic stem cell lines were cultured essentially as described {Cowan, 2004 #6}. Briefly, HUES4, HUES8 and HUES9 cells are routinely cultured on irradiated CF-1 MEF feeder cells in KnockOut DMEM (Gibco) supplemented with 10% KnockOut Serum Replacement (Gibco), 10% human plasma (Invitrogen), 2 mM L-glutamine (L-Glu, Gibco), 1.1 mM 2-mercaptoethanol (Gibco), 1 mM nonessential amino acids (Gibco), 1× penicillin/streptomycin (PS, Gibco) and 10 ng/ml bFGF (Invitrogen). Cells are split at the ratio of 1:10-1:12 every 4-5 days by using 1 mg/ml collagenase type IV. To induce endoderm formation, HUES cells was cultured on MEF feeder cells till 80-90% confluent, then treated with 100 ng/ml Activin A in advanced RPMI (Gibco) supplemented with 1×L-Glu and 0.2% FBS (Gibco), or with combination of 25 ng/ml Wnt3a (R&D systems)+100 ng/ml Activin A (R&D systems) or were exposed to compounds in the same media. At days 4 and 6 of culture cells were analysed for endodermal marker expression, Sox17.
(§1) Cells were fixed in 4% paraformaldehyde (Sigma) in PBS for 20 min at 4° C. followed by a wash with PBS. Cells were blocked with 10% donkey serum (Jackson Immunoresearch) in PBS/0.1% Triton X and incubated with primary antibodies overnight at 4° C. Secondary antibodies were incubated for 1 h at room temperature. The following antibodies and dilutions were used: goat anti-SOX17, (1:500 R&D systems); rabbit anti-PDX1 (1:200, Chemicon), rabbit anti-FoxA2 (1:500; Upstate), rabbit anti-Dab2 (1:200, Santa Cruz), rabbit anti-SPARC (1:200, Santa Cruz,), mouse anti-AFP (1:100, Sigma), anti-Gata6 (1:50, Santa Cruz Biotech), goat anti-HNF6 (1:200, Santa Cruz Biotech), rabbit anti-RFP/DsRed (1:300, MBL), rabbit anti-GFP (1:200, Molecular Probes). Secondary antibodies were: rhodamine Red-X-conjugated donkey anti-goat antibody, 1:200 (JIRL), Alexa-488-conjugated goat anti-mouse and Alexa-594-conjugated goat anti-rabbit antibodies (1:300, Molecular Probes). Nuclei were visualized by Hoechst 33342 (1:1000, Molecular Probes). Images were taken using an Olympus IX70 Microscope. For quantification images were analyzed for the frequency of SOX17+, FoxA2+ or Pdx1+ cells using Metamorph image analysis software (Molecular Devices) and at least 6 images per well were collected. Data were confirmed in four independent experiments.

mouse ES cells = assay: Extra-embryonic endoderm markers and morphology of induced Sox17+ cells (immunostaining); assay type: cell-based; conditions: for morphology of induced Sox17+ cells: immunostaining with α-Sox17 antibody; for expression of extra-embryonic endoderm (EE) markers GATA4, SPARC, AFP, Dab2 in induced Sox17+ cells: mouse ES cells, immunostaining
Method: as §1
During evaluation of primary hit compounds, the inventors observed that small molecules induced Sox17+ cells with two distinct morphologies. One class, including IDE1 and IDE2, induced clustered populations of Sox17+ cells, whereas other compounds led to the formation of a dispersed population of Sox17+ cells. […] Sox17 is expressed in definitive endoderm, but also in extra-embryonic endoderm, and in other germ layer derivatives at later stages of development including vascular endothelium (Kanai-Azuma et al., 2002; Matsui et al., 2006). Since the positive identification of definitive endoderm is hindered by the lack of unique markers that are expressed exclusively there, and not present in other types of endoderm, the inventors performed a negative selection and tested for markers of extra-embryonic endoderm. It was found, that the vast majority (>95%) of the dispersed Sox17+ cells (class II) also expressed extra-embryonic endoderm markers including Gata4 (Morrisey et al., 1996), SPARC (Mason et al., 1986), AFP (Dziadek, 1979) and Dab2 (Yang et al., 2002) (Suppl. FIG. 2B).

| Compound | dose dependence of Sox17 expression [1] | percent of cells expressing Sox17 [1] [%] | morphology of induced Sox17+ cells (mouse ES cells) | expression of extra-embryonic endoderm (EE) markers GATA4, SPARC, AFP, Dab2 in induced Sox17+ cells (mouse ES cells) |
| --- | --- | --- | --- | --- |
| O=C(O)CCCCCC(=O)N/N=C/c1ccccc1C(=O)O [IDE1] | dose-depended manner | 62±8.1 | compact, epithelial sheet | marginal expression of EE markers; also recorded: no or a negligible number of cells positive for extra-embryonic markers |
| O=C(O)CCCCCC(=O)NN=C1CCCC1 [IDE2] | dose-depended manner | 57±6.7 | compact, epithelial sheet | only rarely detected; also recorded: no or a negligible number of cells positive for extra-embryonic markers |
